{"source": "patent US20050020567A1", "about": "“Method of treating bacterial infections using gemifloxacin or a salt thereof and a carbapenem antibacterial agent” (priority 2002, published 2005)", "type_in_all_cases": "cell-based, Pseudomonas aeruginosa", "key": {"[1]": {"test_system": "P. aeruginosa ATCC 27853", "assay": "checkerboard titration, gemifloxacin and meropenem (MIC, FIC)", "conditions": "for MIC: Pseudomonas aeruginosa", "experimental": "Evaluation for synergistic activity was carried out by calculation of fractional inhibitory concentrations (FICs) according to the method of Eliopoulos et al (1996, Antimicrobial Combinations, Antibiotics in Laboratory Medicine, Victor Lorian, 4th Edition, pp 337-338, Baltimore, Md., Williams and Wilkins).\nP. aeruginosa ATCC 27853 was obtained from the SmithKline Beecham Anti-Infectives Research Culture Collection and stored at −80° C. in 10% glycerol. Before testing, the isolate was passaged onto agar plates (trypticase soy agar containing 5% sheeps blood) from the frozen stock for two consecutive days. Cation adjusted Mueller Hinton broth (BBL, Cockeyville, Md.) was used for the isolate.\nCheckerboard microtitre broth dilution plates were prepared using the Hamilton MicroLab AT Plus system (Reno, Nev.). Two-fold serial dilutions (50 μl) of meropenem were made in columns 1 through 11 of a microtitre plate. Two-fold serial dilutions of gemifloxicin were prepared manually and the MicroLab AT Plus was used to dispense 25 μl of gemifloxacin at each concentration into rows A through G of the microtitre plate. The concentration range tested varied for each drug/organism combination to encompass the MIC endpoints of the individual components. Column 12 contained two fold serial dilutions of gemifloxacin only, and row H contained two fold serial dilutions of meropenem only. The last well (H) in column 12 was used as a positive growth control well, containing only medium and test isolate.\nThe bacteria were diluted to a 0.5 McFarland standard and then further diluted 1/50. Each well was inoculated with 25 μl of the isolate to give a final inoculum density of approximately 5×10^5 cfu/ml. The MicroLab AT Plus 2 was used to add the inoculum to the microtitre plates. After inoculation, the plates were covered with a 96 well microtitre plate lid and incubated at 35° C. in ambient air for 20-24 hours. A 10 μl aliquot of the inoculum was plated on trypticase soy agar containing 5% sheep blood to determine the purity of the final test inoculum.\nFollowing incubation, a microtitre mirror reader (Cooke Instruments Ltd., England) was used to assist in determining the microdilution MIC endpoints. The MIC was determined as the lowest concentration of compound that inhibited visible growth of the organism.\nThe Fractional Inhibitory Concentrations (FICs) were calculated using the following formula: (A)/(MIC A)+(B)/(MIC B)=FIC A+FIC B=FIC Index wherein: • A is the MIC of drug A in the presence of drug B • B is the MIC of drug B in the presence of drug A • MIC A is the MIC of the organism to drug A alone • MIC B is the MIC of the organism to drug B alone • FIC A is the fractional inhibitory concentration of drug A • FIC B is the fractional inhibitory concentration of drug B"}, "[2]": {"test_system": "P. aeruginosa 6140", "assay": "checkerboard titration, gemifloxacin and imipenem (MIC, FIC)", "conditions": "for MIC: Pseudomonas aeruginosa, alone", "experimental": "(§1) The combined effect of gemifloxacin and imipenem was investigated in P. aeruginosa by using a checkerboard titration method. The test organisms used in this study were all clinical isolates collected in Korea. The isolates were maintained frozen at −70° C. prior to testing.\n(§2) Gemifloxacin was tested at 12 concentrations (0.016-32 μg/ml) and imipenem was tested at 11 concentrations (0.016-16 μg/ml). Gemifloxacin was dispensed alone in the first row and combined with imipenem in the remaining rows. Imipenem solution was also dispensed alone in the first row in the first column. Test strains were grown for 18 h in Mueller-Hinton Broth, and then these overnight cultures were diluted with the same fresh medium to the density of approximately 10^7 CFU/mL. The bacterial concentrations were determined by measuring optical density or turbidity of the suspension and were verified by standard colony counts on antibiotic-free agar plates. A diluted bacterial solution was applied to plates containing serially diluted antimicrobial agents to yield 5×10^5 CFU/mL. Plates were incubated at 35° C. for 18 hours.\n(§3) Minimal inhibitory concentrations (MICs) for each separate drug were determined. For wells along the growth-no growth interface, synergy was determined by calculating the Fractional Inhibitory Concentration (FIC) index. The Fractional Inhibitory Concentration (FIC) indices were calculated using the following formula: FIC index=FICA+FICB=[A]/MICA+[B]/MICB Wherein: • FICA(or B), is the FIC of drug A (or B) • MICA (or B) is the MIC of the organism to drug A (or B) • A (or B) is concentration of drug A (or B) that is the lowest inhibitory concentration\n(§4) The FIC indices were interpreted using the following criteria: • ≦0.5=Synergy; • >0.5-1.0=Additive; • >1.0-4.0=Indifference; • >4.0=Antagonism"}, "[3]": {"test_system": "P. aeruginosa 6168", "assay": "checkerboard titration, gemifloxacin and imipenem (MIC, FIC)", "conditions": "for MIC: Pseudomonas aeruginosa, alone", "experimental": "as §1, §2, §3, §4"}, "[4]": {"test_system": "P. aeruginosa PA018R", "assay": "checkerboard titration, gemifloxacin and imipenem (MIC, FIC)", "conditions": "for MIC: Pseudomonas aeruginosa, alone", "experimental": "as §1, §2, §3, §4"}, "[5]": {"conditions": "gemifloxacin in combination with imipenem"}, "[6]": {"conditions": "imipenem in combination with gemifloxacin"}}, "note": "Like-named read-outs stand apart in the source and are kept apart here.", "data": [{"smiles": "CO/N=C1\\CN(c2nc3c(cc2F)c(=O)c(C(=O)O)cn3C2CC2)CC1CN", "note": "(racemic) [gemifloxacin, (R,S)-7-(3-aminomethyl-4-methoxyiminopyrrolidin-1-yl)-1-cyclopropyl-6-fluoro-4-oxo-1,4-dihydro-1,8-naphthyridine-3-carboxylic acid]", "values": [{"measurement": "MIC", "setting": "[1]; ATCC27853, in the presence of meropenem 0.125 μg/ml, read-out: gemifloxacin MIC", "result": 0.125, "unit": "µg/mL"}, {"measurement": "gemifloxacin MIC", "setting": "[1]; gemifloxacin alone", "result": 0.5, "unit": "µg/mL"}, {"measurement": "FICA", "setting": "[2]; FIC of gemifloxacin", "result": 0.25}, {"measurement": "MIC", "setting": "[2]; read-out: gemifloxacin MIC", "result": 8, "unit": "µg/mL"}, {"measurement": "Cgemifloxacin MIC", "setting": "[2]; [5]", "result": 2, "unit": "µg/mL"}, {"measurement": "FICA", "setting": "[3]; FIC of gemifloxacin", "result": 0.13}, {"measurement": "MIC", "setting": "[3]; read-out: gemifloxacin MIC", "result": 0.5, "unit": "µg/mL"}, {"measurement": "Cgemifloxacin MIC", "setting": "[3]; [5]", "result": 0.0625, "unit": "µg/mL"}, {"measurement": "FICA", "setting": "[4]; FIC of gemifloxacin", "result": 0.25}, {"measurement": "MIC", "setting": "[4]; read-out: gemifloxacin MIC", "result": 4, "unit": "µg/mL"}, {"measurement": "Cgemifloxacin MIC", "setting": "[4]; [5]", "result": 1, "unit": "µg/mL"}]}, {"smiles": "C[C@@H](O)[C@H]1C(=O)N2C(C(=O)O)=C(S[C@@H]3CN[C@H](C(=O)N(C)C)C3)[C@H](C)[C@H]12", "note": "[meropenem]", "values": [{"measurement": "MIC", "setting": "[1]; ATCC27853, in the presence of gemifloxacin 0.125 μg/ml, read-out: meropenem MIC", "result": 0.125, "unit": "µg/mL"}, {"measurement": "meropenem MIC", "setting": "[1]; meropenem alone", "result": 0.5, "unit": "µg/mL"}]}, {"smiles": "C[C@@H](O)[C@H]1C(=O)N2C(C(=O)O)=C(SCCN=CN)C[C@H]12", "note": "[imipenem]", "values": [{"measurement": "FICB", "setting": "[2]; FIC of imipenem", "result": 0.25}, {"measurement": "MIC", "setting": "[2]; read-out: imipenem MIC", "result": 4, "unit": "µg/mL"}, {"measurement": "Cimipenem MIC", "setting": "[2]; [6]", "result": 1, "unit": "µg/mL"}, {"measurement": "FICB", "setting": "[3]; FIC of imipenem", "result": 0.25}, {"measurement": "MIC", "setting": "[3]; read-out: imipenem MIC", "result": 1, "unit": "µg/mL"}, {"measurement": "Cimipenem MIC", "setting": "[3]; [6]", "result": 0.25, "unit": "µg/mL"}, {"measurement": "FICB", "setting": "[4]; FIC of imipenem", "result": 0.06}, {"measurement": "MIC", "setting": "[4]; read-out: imipenem MIC", "result": 16, "unit": "µg/mL"}, {"measurement": "Cimipenem MIC", "setting": "[4]; [6]", "result": 1, "unit": "µg/mL"}]}]}
